Results taken from patent US11046659B2, “1,2,3-triazole derivative and insecticide and acaricide containing said derivative as active ingredient” (HOKKO CHEMICAL INDUSTRY CO., LTD., priority 2015, dated 2021).

Test system: Tetranychus urticae
Experiment: Tetranychus urticae control test
Type: in vivo
Conditions: diluted emulsifiable concentrate 500 ppm sprayed on bean seedlings; female adults; eight days after the treatment; 25° C.
Procedure: Test Example-4: Tetranychus urticae Control Test
Ten female adults of Tetranychus urticae were released on each of bean seedlings grown in a plastic cup. One day after the release, the bean seedlings were placed on a turntable, and 30 mL of a diluted emulsifiable concentrate (500 ppm) prepared according to Formulation Example 3 was uniformly sprayed thereon by means of a spray gun. After the treatment, the seedlings were placed in a constant temperature chamber at 25° C. (with lighting for 16 hours). Eight days after the treatment, the number of surviving parasitic insects was investigated, and the preventive value (%) was calculated according to the following calculating formula (b). Test was conducted in duplicate. Preventive value (%)={1−(number of parasitic insects on investigation day in treatment plot/number of parasitic insects on investigation day in non-treatment plot)}×100 Formula (b): […]

CCS(=O)(=O)c1cc(C(F)(F)F)cnc1-n1cc(-c2ccc(C(F)(F)F)cc2)nn1 [1-834] was tested, and the preventive value was ≥ 80%.
